From paper PMC12259270, “Sensory neuron–expressed FGF13 controls nociceptive signaling in diabetic neuropathy models” (The Journal of Clinical Investigation, 2025)
Residues, ends and D or L forms follow the SMILES beside them. *: point of attachment. Cbz = O=C(OCc1ccccc1)*; OtBu = CC(C)(C)O*

Test system: C57BL/6 mice
Test: Capsaicin-induced thermal hypersensitivity (Hargreaves)
Type: in vivo, mouse
Source text: FGF13 is a neuronal gene ubiquitously transcribed in DRG neuronal subtypes ([43]–[46]). To investigate neuronal subtype enrichment of the FGF13 transcript, we examined a gene panel including FGF13, SCN9A, and several marker genes in mouse single-cell transcriptomic data (Supplemental Figure 10) ([43]–[46]). […] Critically, putative silent nociceptors marked by somatostatin (SST), and the nicotinic cholinergic receptor α-3 subunit (CHRNA3) contribute to development of inflammatory mechanical hyperalgesia ([47]). […] We next determined if PW164 modulation of the FGF13/Nav1.7 complex could suppress nociceptive behaviors in WT mice. We tested whether intraplantar (i.pl.) injection (5 μL) of PW164 altered hind paw withdrawal in response to low or high intensity von Frey filament (LVF or HVF, respectively) mechanical stimulation (Figure 3A). […] Next, we evaluated PW164’s effect on mechanical and thermal hindpaw sensitivity in capsaicin-induced nociceptive hypersensitivity models. […] Next, we performed in vivo target validation in WT mice that received an intrathecal (i.t.) injection in L5 of AAV2-shFGF13 (6 μL, viral titers 1 × 10^12 vector genomes (vg)/mL); a control group received an equal number of AAV2-shCTRL particles (Figure 3C).
Experiments were performed on 6- to 12-week-old male C57BL/6 mice (The Jackson Laboratory, Bar Harbor, ME) housed in the AAALAC-accredited facility at the University of Texas Medical Branch. Mice were group-housed with up to 5 mice per cage on a 12-to-12-hour light–dark cycle and had access to water and food ad libitum. All protocols were approved by the Institutional Animal Care and Use Committee (IACUC) at the University of Texas Medical Branch and in accordance with the National Institutes of Health (NIH) guidelines.
PW164 and ZL192 were dissolved in DMSO and saline in a ratio of 1:10. 0.1% capsaicin (10% ethanol, 10% Tween-20 in saline; Sigma-Aldrich). All the compounds were injected at the center of the hind paw. The control group received a DMSO-saline mixture. […]
AAV2 viral particles packaged by the University of North Carolina Gene Therapy Core Facility (viral titer ranging […]
Before intrathecal injections in the lumbar region, mice were maintained in an anesthetizing box with 2% isoflurane to induce unconsciousness. Six microliters of viral vector were gently injected into the CSF through a 30-gauge needle with a Hamilton syringe in the lumbar area between vertebrae L4 and L5 by gently gripping the iliac crest of the mouse and inserting the needle with an angle of 45°. The correct procedure was confirmed by the mouse’s tail reflexiv e flick. […]

Structure (SMILES): COC(=O)[C@@H](NC(=O)[C@H](CCC(=O)OC(C)(C)C)NC(=O)[C@H](CC(C)C)NC(=O)[C@@H]1CCCN1C(=O)OCc1ccccc1)C(C)C [PW164] (Cbz-PLE(OtBu)V-OMe)
- thermal sensitivity in AAV2-shFGF13 mice after capsaicin (PW164 5 μL, 0.7mg/mL hind paw): did not further modify
- capsaicin-induced thermal sensitivity (PW164 at the capsaicin injection site, 30 minutes post-capsaicin): inhibited
